ChEMBL document CHEMBL4425099, “Use of Osmotic Pumps to Establish the Pharmacokinetic-Pharmacodynamic Relationship and Define Desirable Human Performance Characteristics for Aggrecanase Inhibitors” (J Med Chem, 2016)
In brackets after ≈: the same amount, converted by molar mass. Activity calls are given as the source filed them. No cut-off for these calls is given here.

Tests used:
[1] = Ratio of plasma concentration in Lewis rat model of MIA at 6 mg/mL, […] post 3 days MIA induction to IC50 for human ADAMTS5 in presence of rat plasma; assay type: ADME, organism-based; settings: in vivo, 72 h
[2] = Ratio of plasma concentration in Lewis rat model of MIA at 18 mg/mL, […] post 3 days MIA induction to IC50 for human ADAMTS5 in presence of rat plasma; assay type: ADME, organism-based; settings: in vivo, 72 h
[3] = Ratio of plasma concentration in Lewis rat model of MIA at 60 mg/mL, […] post 3 days MIA induction to IC50 for human ADAMTS5 in presence of rat plasma; assay type: ADME, organism-based; settings: in vivo, 72 h
Rattus norvegicus [4] = assay: Reduction in ADAMTS-4/ADAMTS-5 mediated aggrecan cleavage products in Lewis rat model of MIA assessed as aggrecanase-cleaved fragments at 6 mg/mL administered through infusion pump post 3 days MIA induction measured after 4 hrs of last dosage on day 7 by NITEGE sandwich ELISA; assay type: functional
Rattus norvegicus [5] = assay: Reduction in ADAMTS-4/ADAMTS-5 mediated aggrecan cleavage products in Lewis rat model of MIA assessed as aggrecanase-cleaved fragments at 18 mg/mL administered through infusion pump post 3 days MIA induction measured after 4 hrs of last dosage on day 7 by NITEGE sandwich ELISA; assay type: functional
[6] = Oral bioavailability in rat at 10 mg/kg; assay type: ADME, organism-based; settings: in vivo
Rattus norvegicus [7] = assay: Reduction in meniscal tear-induced osteoarthritis total joint score in Lewis rat surgical model at 30 and 100 mg/kg, po bid relative to vehicle control; assay type: functional, organism-based
[8] = Solubility of the compound at pH 7.7; assay type: physicochemical; settings: buffer
Rattus norvegicus [9] = assay: Reduction in ADAMTS-4/ADAMTS-5 mediated aggrecan cleavage products in Lewis rat model of MIA assessed as aggrecanase-cleaved fragments at 3 mg/kg, po bid administered post 3 days MIA induction measured after 4 hrs of last dosage on day 7 by NITEGE sandwich ELISA relative to vehicle control; assay type: functional, organism-based
Rattus norvegicus [10] = assay: Reduction in ADAMTS-4/ADAMTS-5 mediated aggrecan cleavage products in Lewis rat model of MIA assessed as aggrecanase-cleaved fragments at 30 mg/kg, po qd administered post 3 days MIA induction measured after 4 hrs of last dosage on day 7 by NITEGE sandwich ELISA; assay type: functional
[11] = Plasma concentration in Lewis rat model of MIA at 4.3 mg/mL, sc administered through infusion pump post 3 days MIA induction; assay type: ADME, organism-based
[12] = Plasma concentration in Lewis rat model of MIA at 30 mg/mL, sc administered through infusion pump post 3 days MIA induction; assay type: ADME, organism-based
[13] = Ratio of plasma concentration in Lewis rat model of MIA at 4.3 mg/mL, sc administered through infusion pump post 3 days MIA induction to IC50 for human ADAMTS5 in presence of rat plasma; assay type: ADME, organism-based; settings: in vivo, 72 h
[14] = Ratio of plasma concentration in Lewis rat model of MIA at 30 mg/mL, sc administered through infusion pump post 3 days MIA induction to IC50 for human ADAMTS5 in presence of rat plasma; assay type: ADME, organism-based; settings: in vivo, 72 h
[15] = Dissociation constant, basic pKa of the compound; assay type: physicochemical
[16] = Tmax in Lewis rat plasma at 30 mg/kg, po; assay type: ADME, organism-based
[17] = Ratio of plasma concentration in Lewis rat model of MIA at 30 mg/kg, po bid administered post 3 days MIA induction measured after 1 hr of last dosage on day 7 to IC50 for human ADAMTS5 in presence of Lewis rat plasma; assay type: ADME, organism-based; settings: in vivo
[18] = Ratio of plasma concentration in Lewis rat model of MIA at 30 mg/kg, po bid administered post 3 days MIA induction measured after 12 hrs of last dosage on day 7 to IC50 for human ADAMTS5 in presence of Lewis rat plasma; assay type: ADME, organism-based; settings: in vivo

Row | Ratio [1] | Ratio [2] | Ratio [3] | bioavailability [6] | solubility [8] | concentration at 72 h [11] | concentration at 72 h [12] | Ratio [13] | Ratio [14] | pKa [15] | Tmax [16] | Ratio [17] | Ratio [18] | Structure (SMILES) | inhibition (INH) (Rattus norvegicus [4]) | inhibition (INH) (Rattus norvegicus [5]) | inhibition (Rattus norvegicus [7]) | inhibition (Rattus norvegicus [9]) | inhibition in vivo at 30 mg/kg (Rattus norvegicus [10])
1 | 10 | 35 | 46 | 83% | 16 µg/mL (≈ 42 µM) |  |  |  |  |  |  |  |  | O=C1NC(=O)[C@](CNC(=O)c2cc3cc(C(F)(F)F)ccc3o2)(C2CC2)N1 | 44% | 56% | Active | Active | 52%
2 |  |  |  |  |  | 360 nM | 3600 nM | 10 | 100 | 3.67 | 1 h | 2000 | 10 | Cn1ccnc1[C@]1(CNC(=O)c2cc3cc(C(F)(F)F)ccc3o2)NC(=O)NC1=O |  |  |  |  | 
